One data set concerns Smn protein. Description: Smn protein assay in cultured cells (SMN HTRF). The format is cell-based, human. To be noted: 48 hours; for maximum fold (Fold) increase of Smn protein: SMA patient fibroblast cells, 7-point concentration data, fold increase relative to vehicle control (SMN HTRF); for EC1.5x (concentration giving 1.5-fold Smn protein increase): SMA Type 1 patient fibroblast cells (GM03813), 7-point concentration curve, SMN HTRF, concentration producing 1.5 times Smn protein vs DMSO vehicle control, read-out: EC1.5x for Smn protein expression. A digest of the protocol:
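Lysates in RIPA with protease inhibitors are incubated overnight at room temperature with HTRF anti-SMN antibodies. EC1.5x is derived from fold increase in ΔF over vehicle.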
For orientation: In TR-FRET formats the signal depends on donor and acceptor labels being close together.

Data set [1] relates to SMN2 minigene (full length SMN2 minigene mRNA containing SMN2 exon 7). The data set can be described thus: SMN2 minigene mRNA splicing RT-qPCR assay in cultured cells. The format is cell-based, human. The following applies: Homo sapiens, HEK293-H; HEK293H cells stably transfected with SMN2-A minigene; 24 hours; 7-point concentration curve; 1.5-fold relative to vehicle-treated cells; read-out: EC1.5x for production of full length SMN2 mRNA. In outline: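 Read-out: full-length (exon 7-included) SMN2 minigene mRNA by multiplex RT-qPCR with GAPDH, efficiency-corrected (1+E)^−Ct, GAPDH-normalized and divided by vehicle. Stably transfected HEK293H cells, 24 h compound exposure, duplicates per concentration. Value is EC1.5x, reported as star ranges.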
On the technique in general: Quantitative PCR measures a nucleic acid by following its amplification.

Experimental findings from patent USRE47689E1, “Compounds for treating spinal muscular atrophy” (PTC Therapeutics, Inc., priority 2011, dated 2019) are described below.

The compound `C[C@H]1CN(c2ccc3cc(-c4ccc(F)cc4Cl)c(=O)oc3c2)CCN1` [Compound 510, 3-(2-chloro-4-fluorophenyl)-7-[(3S)-3-methylpiperazin-1-yl]-2H-chromen-2-one] gave a melting point of 109 to 111 °C. Further, in the data set with Smn protein, the “maximum fold (Fold) increase of Smn protein” value (“maximum fold (Fold) increase” for short) is given as “* (maximum fold increase of ≤1.2)”. For the same compound, the EC (1.5-fold) in data set [1] lay in the range of 3 to 30 µM.
Regarding `CCN1CCN(c2ccc3cc(-c4cn5cccnc5n4)c(=O)oc3c2)CC1` [Compound 108, 7-(4-ethylpiperazin-1-yl)-3-(imidazo[1,2-a]pyrimidin-2-yl)-2H-chromen-2-one], the melting point lay within 300 to 302 °C. Moreover, in the data set with Smn protein, the EC1.5x (concentration giving 1.5-fold Smn protein increase) was in the range of 300 to 1000 nM; the “maximum fold (Fold) increase” value was “**** (fold increase between >1.5 and ≤1.65)”. For the same compound, the EC (1.5-fold) in data set [1] was 1 to 3 µM.
On to `Cc1cn2cc(-c3cc4ccc(CCCNCc5ccccn5)cc4oc3=O)nc2c(C)n1` [Compound 935, 3-(6,8-dimethylimidazo[1,2-a]pyrazin-2-yl)-7-{3-[(pyridin-2-ylmethyl)amino]propyl}-2H-chromen-2-one], for which the melting point lay in the range of 177 to 180 °C. Besides, in the data set with Smn protein, the EC1.5x (concentration giving 1.5-fold Smn protein increase) lay within 300 to 1000 nM; the “maximum fold (Fold) increase” value was “**** (fold increase between >1.5 and ≤1.65)”. Also, in data set [1], the EC (1.5-fold) is 0.1 to 0.3 µM.
For `Cc1cn2cc(-c3cc4ccc(C5CCN(C6COC6)CC5)cc4oc3=O)nc2c(C)n1` [Compound 855, 3-(6,8-dimethylimidazo[1,2-a]pyrazin-2-yl)-7-[1-(oxetan-3-yl)piperidin-4-yl]-2H-chromen-2-one], the melting point was in the range of 217 to 223 °C. Moreover, in the data set on Smn protein, the EC1.5x (concentration giving 1.5-fold Smn protein increase) is below 300 nM and the “maximum fold (Fold) increase” value is “***** (fold increase >1.65)”. In data set [1], the EC (1.5-fold) is below 0.1 µM.
Compound `Cc1cn2cc(-c3cc4ccc(N5CCN6C[C@H](O)C[C@H]6C5)cc4oc3=O)cc2c(C)n1` [Compound 767, 3-(1,3-dimethylpyrrolo[1,2-a]pyrazin-7-yl)-7-[(7R,8aS)-7-hydroxyhexahydropyrrolo[1,2-a]pyrazin-2(1H)-yl]-2H-chromen-2-one] showed a melting point of 185 to 188 °C. Also, in the data set on Smn protein, the EC1.5x (concentration giving 1.5-fold Smn protein increase) was below 300 nM and the “maximum fold (Fold) increase” value was “***** (fold increase >1.65)”. For the same compound, the EC (1.5-fold) in data set [1] is below 0.1 µM.
For the compound `O=c1oc2cc(N3CCNCC3)ccc2cc1-c1cn2cccc(Cl)c2n1` [Compound 83, 3-(8-chloroimidazo[1,2-a]pyridin-2-yl)-7-(piperazin-1-yl)-2H-chromen-2-one], the melting point was 196 to 198 °C. Moreover, in the data set on Smn protein, the EC1.5x (concentration giving 1.5-fold Smn protein increase) was in the range of 1000 to 3000 nM; the “maximum fold (Fold) increase” value is “**** (fold increase between >1.5 and ≤1.65)”. Also, in data set [1], the EC (1.5-fold) was in the range of 0.3 to 1 µM.
Compound `O=c1oc2cc(N3CCNCC3)cc(F)c2cc1-c1cn2cccc(Cl)c2n1` [Compound 392, 3-(8-chloroimidazo[1,2-a]pyridin-2-yl)-5-fluoro-7-(piperazin-1-yl)-2H-chromen-2-one] registered a melting point of 241 to 250 °C. For the same compound, the “maximum fold (Fold) increase” value with Smn protein was “** (fold increase between >1.2 and ≤1.35)”. Also, the EC (1.5-fold) in data set [1] is 0.3 to 1 µM.
In turn, `CCc1ccn2cc(-c3cc4ccc(N5CCNCC5)cc4oc3=O)nc2c1` [Compound 287, 3-(7-ethylimidazo[1,2-a]pyridin-2-yl)-7-(piperazin-1-yl)-2H-chromen-2-one] gave a melting point of 253 to 263 °C. In addition, in the data set on Smn protein, the “maximum fold (Fold) increase” value was “* (maximum fold increase of ≤1.2)”. Further, the EC (1.5-fold) in data set [1] was in the range of 0.3 to 1 µM.
`Cc1cn2cc(-c3cc4ccc(N[C@H]5CCN(C)C5)cc4oc3=O)nc2c(C)n1` [Compound 657, 3-(6,8-dimethylimidazo[1,2-a]pyrazin-2-yl)-7-{[(3S)-1-methylpyrrolidin-3-yl]amino}-2H-chromen-2-one]: the melting point was in the range of 223 to 233 °C. Moreover, in the data set on Smn protein, the EC1.5x (concentration giving 1.5-fold Smn protein increase) is below 300 nM; the “maximum fold (Fold) increase” value is “**** (fold increase between >1.5 and ≤1.65)”. Moreover, in data set [1], the EC (1.5-fold) was below 0.1 µM.
`Cc1cn2cc(-c3cc4ccc(N5CCN(C)[C@H](C)C5)cc4oc3=O)nc2c(C)n1` [Compound 606, 3-(6,8-dimethylimidazo[1,2-a]pyrazin-2-yl)-7-[(3R)-3,4-dimethylpiperazin-1-yl]-2H-chromen-2-one] gave a melting point of 220 to 221 °C. For the same compound, in the data set on Smn protein, the EC1.5x (concentration giving 1.5-fold Smn protein increase) is below 300 nM and the “maximum fold (Fold) increase” value is given as “***** (fold increase >1.65)”. For the same compound, in data set [1], the EC (1.5-fold) is below 0.1 µM.
`CN1CCN(c2ccc3cc(-c4cn5ccccc5n4)c(=O)oc3c2)CC1` [Compound 72, 3-(imidazo[1,2-a]pyridin-2-yl)-7-(4-methylpiperazin-1-yl)-2H-chromen-2-one] registered a melting point of 265 to 268 °C. In the data set with Smn protein, the EC1.5x (concentration giving 1.5-fold Smn protein increase) was 300 to 1000 nM; the “maximum fold (Fold) increase” value is “*** (fold increase between >1.35 and ≤1.5)”. The EC (1.5-fold) in data set [1] fell in the range of 0.3 to 1 µM.
`Cc1csc(-c2cc3ccc(N4CCCNCC4)cc3oc2=O)n1` [Compound 284, 7-(1,4-diazepan-1-yl)-3-(4-methyl-1,3-thiazol-2-yl)-2H-chromen-2-one] had a melting point of 195 to 203 °C. Further, the “maximum fold (Fold) increase” value in the data set with Smn protein is “* (maximum fold increase of ≤1.2)”. In addition, the EC (1.5-fold) in data set [1] lay within 1 to 3 µM.
`O=c1oc2cc(N3CCNCC3)ccc2cc1-c1cccc(C(F)(F)F)n1` [Compound 90, 7-(piperazin-1-yl)-3-[6-(trifluoromethyl)pyridin-2-yl]-2H-chromen-2-one] showed a melting point of 158 to 160 °C. The “maximum fold (Fold) increase” value in the data set with Smn protein was “*** (fold increase between >1.35 and ≤1.5)”. For the same compound, the EC (1.5-fold) in data set [1] lay in the range of 0.3 to 1 µM.
The compound `Cc1cn2cc(-c3cc4ccc(N5CCC(NC(C)CO)CC5)cc4oc3=O)nc2c(C)n1` (centres unmarked) [Compound 925, 3-(6,8-dimethylimidazo[1,2-a]pyrazin-2-yl)-7-{4-[(1-hydroxypropan-2-yl)amino]piperidin-1-yl}-2H-chromen-2-one] showed a melting point of 185 to 189 °C. In the data set on Smn protein, the EC1.5x (concentration giving 1.5-fold Smn protein increase) is 1000 to 3000 nM; the “maximum fold (Fold) increase” value was “*** (fold increase between >1.35 and ≤1.5)”. Further, in data set [1], the EC (1.5-fold) was below 0.1 µM.
The compound `Cc1nccn2cc(-c3cc4ccc(N5CCNCC5)cc4oc3=O)nc12` [Compound 571, 3-(8-methylimidazo[1,2-a]pyrazin-2-yl)-7-(piperazin-1-yl)-2H-chromen-2-one] returned a melting point of 213 to 215 °C. Moreover, the “maximum fold (Fold) increase” value with Smn protein was “** (fold increase between >1.2 and ≤1.35)”. The EC (1.5-fold) in data set [1] lay in the range of 0.3 to 1 µM.
`Cc1cn2cc(-c3cc4ccc(N5CC[C@H](CN)C5)cc4oc3=O)nc2c(C)n1` [Compound 950, 7-[(3R)-3-(aminomethyl)pyrrolidin-1-yl]-3-(6,8-dimethylimidazo[1,2-a]pyrazin-2-yl)-2H-chromen-2-one]: the melting point fell in the range of 196 to 198 °C. For the same compound, in the data set with Smn protein, the EC1.5x (concentration giving 1.5-fold Smn protein increase) is 1000 to 3000 nM; the “maximum fold (Fold) increase” value is “*** (fold increase between >1.35 and ≤1.5)”. The EC (1.5-fold) in data set [1] fell in the range of 0.1 to 0.3 µM.
In turn, `CN1CCCN(c2ccc3cc(-c4cn5ccsc5n4)c(=O)oc3c2)CC1` [Compound 203, 3-(imidazo[2,1-b][1,3]thiazol-6-yl)-7-(4-methyl-1,4-diazepan-1-yl)-2H-chromen-2-one] displayed a melting point of 228 to 231 °C. In addition, in the data set with Smn protein, the EC1.5x (concentration giving 1.5-fold Smn protein increase) was in the range of 300 to 1000 nM; the “maximum fold (Fold) increase” value is “**** (fold increase between >1.5 and ≤1.65)”. The EC (1.5-fold) in data set [1] fell in the range of 0.1 to 0.3 µM.
On to `Cl.Cl.O=c1oc2cc(O[C@@H]3CCNC3)ccc2cc1-c1cn2ccsc2n1` [Compound 324, 3-(imidazo[2,1-b][1,3]thiazol-6-yl)-7-[(3R)-pyrrolidin-3-yloxy]-2H-chromen-2-one hydrochloride (1:2)], for which the melting point was 252 to 256 °C. Moreover, the “maximum fold (Fold) increase” value in the data set with Smn protein is “*** (fold increase between >1.35 and ≤1.5)”. The EC (1.5-fold) in data set [1] lay within 0.3 to 1 µM.
`Cc1ccc2nc(-c3cc4ccc(CNC(C)CO)cc4oc3=O)cn2c1` (centres unmarked) [Compound 251, 7-{[(1-hydroxypropan-2-yl)amino]methyl}-3-(6-methylimidazo[1,2-a]pyridin-2-yl)-2H-chromen-2-one] showed a melting point of 224 to 227 °C. In addition, the “maximum fold (Fold) increase” value with Smn protein is given as “* (maximum fold increase of ≤1.2)”. In addition, the EC (1.5-fold) in data set [1] was 3 to 30 µM.
`Cc1cc(F)c2nc(-c3cc4ccc(N5CCNC(C)(C)C5)cc4oc3=O)cn2c1` [Compound 426, 7-(3,3-dimethylpiperazin-1-yl)-3-(8-fluoro-6-methylimidazo[1,2-a]pyridin-2-yl)-2H-chromen-2-one]: the melting point is 275 to 284 °C. For the same compound, the “maximum fold (Fold) increase” value in the data set on Smn protein is “*** (fold increase between >1.35 and ≤1.5)”. The EC (1.5-fold) in data set [1] was 0.1 to 0.3 µM.
Consider `CCc1cn2cc(-c3cc4ccc(N5CCNCC5)cc4oc3=O)nc2s1` [Compound 428, 3-(2-ethylimidazo[2,1-b][1,3]thiazol-6-yl)-7-(piperazin-1-yl)-2H-chromen-2-one], for which the melting point fell in the range of 231 to 236 °C. Besides, the “maximum fold (Fold) increase” value in the data set with Smn protein was “* (maximum fold increase of ≤1.2)”. Further, the EC (1.5-fold) in data set [1] fell in the range of 1 to 3 µM.

A word on the melting point: it is the temperature of the solid-liquid transition.
